Data taken from US20260234553A1, “COMPOSITIONS COMPRISING SUPRAMOLECULAR ASSEMBLIES OF PEPTIDE AMPHIPHILES AND ORGANIC CATIONS AND METHODS OF USE THEREOF” (Northwestern University, priority 2023, published 2026).
Where “and” joins values, the source holds several entries; their conditions need not be identical. Equal values may be shown once. *: point of attachment. Palmitoyl = CCCCCCCCCCCCCCCC(=O)*

Assays:
[1] = Anomalous small angle X-ray scattering (ASAXS) of Rb+ around PA and OC-PA; type: physicochemical
Text: An anomalous small angle X-ray scattering (ASAXS) was used to deduce the spatial distribution of Rb^+ surrounding charged, twisted peptide amphiphile (PA) bilayer. ASAXS relies on the measurements of the subtle changes in the X-ray energy-dependent scattered intensity profiles from the combined counterion (here, Rb^+)-supramolecular assembly system. These changes arise due to strong dispersion corrections [f′(E), f″(E)] to the form factor (scattering/absorption power) of an atom or an ion when the X-ray energy E is close to the binding energy of a core-shell electron in the atom or the ion [(here, Rb^+ K-edge EK=15.2 keV.
Scattered intensity profiles were measured from 1 mM PA in solutions containing either 66 mM RbCl or 50 mM RbCl and 16 mM OC—Cl at 4 X-ray energies below the Rb^+ K edge (Table 8). The non-resonant
The block height h=1 nm is empirically selected for two reasons. First, no artifacts are introduced by this artificial construct in the simulated scattered intensities over the relevant ASAXS q range of 0.05-2 nm^−1 (FIG. 42). Second, this choice keeps the simulations relatively fast. The distribution of Rb^+ is assumed to follow the shape of each parallelepiped block (FIG. 43C), and consists of the condensed Rb^+ layer, which is associated with the 2 ionizable amino acid groups in the outer periphery of the PA bilayer, followed by 12 layers with exponentially decaying Rb^+ concentration. The total number of Rb^+ associated is equal to the parallelepiped charge, which is calculated based on estimates of the area/molecule/leaflet (At=0.5 nm^2) from molecular dynamics (MD) simulations and a fit parameter for the fraction of amino acids that are in the ionized state (a). Based on this model the orientationally averaged non-resonant intensity and the cross-term are calculated and compared to the data in FIG. 42. […]
The SAXS profiles in FIG. 42 were analyzed using the discretized model in FIG. 43. […] The best-fit was then selected based on manual calculations of the differences between the measured and simulated profiles. […]

CA1 pyramidal neurons = assay: Whole-cell current clamp recordings in organotypic hippocampal slice cultures on PA or ICN layers; type: cell-based, rat; design: Rheobase: unit not given beside the values
Method: To physiologically dissect the unique responses activated by Na^+-ICN vs. K^+-ICN, we explored the effect of ICNs on the stability of the hippocampal network. This well-established ex vivo model allows for the ability to reliably acquire electrophysiological data using organotypic hippocampal slice cultures from neonatal rats. A PA or ICN layer was prepared on top of Millicell® cell culture inserts, inserted hippocampal organotypic slices (including the entorhinal cortex), and measured multiple electrophysiological parameters from CA1 pyramidal neurons at 6, 10, and 14 DIV using whole-cell current clamp recordings (FIG. 5A). Given the known heterogeneity of the hippocampus, the CA1 pyramidal neuron excitability was measured in the dorsal area.
All experiments were carried out according to the European and institutional guidelines for the care and use of laboratory animals (Council Directive 86/609/EEC and French National Research Council) and approved by the local health authority (Préfecture des Bouches-du-Rhône, Marseille). Young wild type Wistar rats (P5-P10), of either sex, were used to prepare organotypic hippocampal slice cultures. Animals were deeply anesthetized with isoflurane (5%) and killed by decapitation. The brain was removed and both hippocampi were individually dissected. Hippocampal slices (300 μm) were cut using a Vibratome (Leica, VT1200S, Wetzlar, Germany) in a sucrose based cutting solution kept at 3-4° C. containing for 1L: ultrapure water (988.5 mL), sucrose (97 g), NaHCO3 (2.18 g), D-glucose (1.8 g), KCl (0.1 g), CaCl2 1M (1 mL), MgCl2 1M (10 mL). Kynurenic acid and penicillin/streptomycin were added to the solution just before cutting to control cellular electrical activity and avoid contamination during slices preparation respectively. Only dorsal hippocampal slices were collected and placed on 20 mm latex membranes (Millicell, Millipore) inserted into 35 mm Petri dishes containing 1 mL of culture medium and maintained in an incubator at 34° C., 95% 02-5% CO2. The culture medium contained 25 mL MEM, 1.25 mL HBSS, 12.5 mL horse serum, 0.5 mL penicillin/streptomycin, 0.8 mL glucose (1 M), 0.1 mL ascorbic acid (1 mg/mL), 0.4 mL Hepes (1 M), 0.5 mL B27, and 8.95 mL sterile H2O. At least 1 h before collecting the slices, PAs control, OC-PA KCl or OC-PA NaCl were painted on the external surface of the latex membranes by dragging a pipette (50 μL of annealed PAs control or OC-PAs) to extrude a thin coat of material and let organotypic slice cultures grow on it. The culture medium was changed regularly (every 3 days). Organotypic hippocampal slice cultures were used at 6, 10 and 14 DIV to perform electrophysiological recordings and at 10 DIV to perform immunostainings.
To perform electrophysiological recordings, the Millicell membrane containing the slices treated with PAs or OC-PAs was cut with a scalpel and transferred to a recording chamber perfused with oxygenated artificial cerebrospinal fluid (aCSF). This solution was maintained at 31° C. and contained: 125 mM NaCl, 26 mM NaHCO3, 3 mM CaCl2, 2.5 mM KCl, 2 mM MgCl2, 0.8 mM NaH2PO4, 10 mM D-glucose. It was finally equilibrated with 95% O2-5% CO2. Neurons were visualized under an upright microscope (Olympus BX50WI) in phase contrast by infrared video-microscopy using a 60× immersion objective. Whole-cell patch-clamp recordings were obtained from CA1 pyramidal neurons in dorsal hippocampal organotypic cultures at DIV6,10 and 14. Patch-clamp pipettes (7-9 MΩ) were filled with a solution containing (mM): K-gluconate 120, KCl 20, HEPES 10, EGTA 0, MgCl2 2, Na2ATP 2, and NaGTP 0.3 (pH 7.4). CA1 pyramidal neurons were recorded in whole cell current clamp with a MultiClamp 700B amplifier (Axon Instruments), digitalized at 20 kHz with Digidata 1440A (Molecular Devices), low pass filtered at 10 kHz, and acquired with Clampex software (Molecular Devices). For current-clamp recordings, pipette capacitance was compensated, and the bridge was balanced. […]

PA nanostructures = assay: 1H DOSY NMR of OC free and with PA; type: binding
Method: Binding of organic cations (OCs) to PA. Initial screening of interactions of five different OCs with PA was performed using ^1H NMR spectroscopy in solution (FIG. 53). Here, ^1H signals lineshape from the ^1H NMR spectra of OCs were compared and analyzed against the corresponding ^1H signals from OC-PA samples. It is expected that ^1H signals will experience broadening if binding is occurring. In all cases we observed significant broadening except for tetramethylammonium (OC4), indicating its poor binding to PA nanostructures. ^1H DOSY NMR measurements. Spectra were measured by monitoring the change in intensity of the corresponding resonances as a function of the field gradient strength g (G/cm). A 2D sequence was used for diffusion measurement based on stimulated echo and LED which applies bipolar gradient pulses for diffusion (2 spoil gradients) together with water presaturation during relaxation delay (ledbpgppr2s Bruker sequence). ^1H DOSY data were first processed in Topspin (Fourier transformation, phasing, and baseline correction) and then the peak intensities of the corresponding resonances were extracted and fitted to the Stejskal-Tanner equation (Eq. 1) to give the value of diffusion coefficient D (m^2/s). Solution ^1H DOSY NMR data were fit to Eq. 1 using NMRTools.jl{, #28110}. ^1H HRMAS DOSY NMR data were fit using the Eq. 1 using Dynamics Center 2.6.3 software.
In the Eq. 1, I and I0 are the signal intensities in the presence and absence of gradient pulses, respectively; γ is the gyromagnetic ratio; g and δ are the gradient strength and their duration, respectively; σ=0.9, is the shape factor for the SMSQ gradient used in the experiment; Δ is the time separation between the edges of the gradient pulses.

C16-VVAAEE (Palmitoyl-VVAAEE-NH2) [peptide amphiphile monomer, C16=palmitoyl, assembles into one-dimensional nanostructures]
Rb^+ concentration near headgroups over bulk Rb^+ concentration ([1]; 1 mM PA in 66 mM RbCl): ~ 40 ×
degree of ionization a ([1]; 1 mM PA in 66 mM RbCl): 0.5
fraction charged (simulated intensities fitted to ASAXS) ([1]; Rb^+ counterions): 50%
rheobase, representative traces (CA1 pyramidal neurons; 6 DIV): 90 pA and 80 pA
rheobase, representative traces (CA1 pyramidal neurons; 10 DIV): 140 pA and 130 pA
rheobase, representative traces (CA1 pyramidal neurons; 14 DIV): 130 pA
Rheobase (CA1 pyramidal neurons; 6 days in vitro): 95.7 ± 5.6 and 86 ± 4.7
Spikes evoked at 240 pA (CA1 pyramidal neurons; 6 days in vitro): 16.4 ± 1.1 and 16.2 ± 0.9
Rheobase (CA1 pyramidal neurons; 10 days in vitro): 109.3 ± 4.8 and 121.8 ± 7.7
Spikes evoked at 240 pA (CA1 pyramidal neurons; 10 days in vitro): 13.2 ± 0.7 and 12.8 ± 0.9
Rheobase (CA1 pyramidal neurons; 14 days in vitro): 127 ± 4.4 and 131 ± 5.4
Spikes evoked at 240 pA (CA1 pyramidal neurons; 14 days in vitro): 11.1 ± 0.5 and 10.3 ± 0.9

CCn1cc[n+](C)c1.[Cl-] [OC, 1-ethyl-3-methyl imidazolium chloride]
diffusion constant D (PA nanostructures; 160.0 mM EMIMCl in PBS pH 7.4, free organic cation): (1.179±0.002)·10^−9 m^2s^−1
diffusion constant D (PA nanostructures; 160.0 mM EMIMCl in PBS pH 7.4 in the presence of 10.0 mM PA): (2.900±0.023)·10^−10 m^2s^−1
diffusion constant Db (slow diffusing) (PA nanostructures; HRMAS DOSY, pelleted OC-PA): (3.326±0.004)·10^−12 m^2s^−1
diffusion constant Df (fast diffusing) (PA nanostructures; HRMAS DOSY, pelleted OC-PA): (1.630±0.001)·10^−10 m^2s^−1
